In US12186397B2, “Adhesive cell tissue gels” (National Cheng Kung University, priority 2011, dated 2025):
“Also recorded” adds a separate entry of the source. Like-named read-outs stand apart in the source and are kept apart here.

Tests used:
Fibroblasts [1] = experiment: Viability of cells in contact with crosslinking agents or gels with quenching agents (Example 2); assay type: cell-based
Procedure: Gels containing various ratios of reactive groups in crosslinking agents to those in the matrix molecules with quenching agents were prepared as indicated in Table 2. Normality was used to indicate the number of reactive groups in the crosslinking agents, the number of functional groups in the matrix molecules, or the number of moieties in the quenching agents. Live cells were seeded and added to the gels, and cell viability was observed. Crosslinking agents were divided into two groups: highly toxic and less toxic. Glutaraldehyde was one of the highly toxic crosslinking agents and epoxide and genipin were the less toxic crosslinking agents. The quenching agents tested were poly-L-lysine and γ-polyglutamic acid.
The above results were summarized from various sets of experiments. Specifically, final concentrations of 0.1 mN, 0.5 mN, 1 mN, and 5 mN of glutaraldehyde were tested alone or added to a gelatin or collagen solution in the presence of poly-L-Lysine as a quenching reagent.

NIH3T3 fibroblast cells = experiment: Toxicity of collagen gels with crosslinking agents (Example 3); assay type: cell-based; settings: for relative toxicity among the three crosslinking agents: collagen gels
Procedure: Gels were prepared from collagen with glutaraldehyde, EX-810, and genipin at 5 mN, 1 mN, 0.5 mN, and 0.1 mN, respectively. Out of the three crosslinking agents, glutaraldehyde was the most toxic and genipin was the least toxic. Normality was used to indicate the numbers of reactive groups in the crosslinking agents. NIH3T3 fibroblast cells were cultured with the gels and a culture medium in a 96-well plate at 4×10^4 cells per well. Cell viability was observed.

Fibroblasts [2] = tested on: Fibroblasts
Procedure: The cytotoxic effect of the adhesive was evaluated by applying 10 μL of the adhesive to the center of a well of a 24-well plate. Fibroblasts (2.0×10^4 cell/well) were seeded and incubated at 37° C. with 5% CO2 for 38 hours. The number of viable cells was quantified by a hemacytometer.

Row | Structure (SMILES) | fibroblast viability in gel (Fibroblasts [1]; 5 mN crosslinker and total 5 mN collagen and poly-L-lysine) | Viability of cells (Fibroblasts [1]; Normality ratio 1:1 of reactive groups in crosslinking agent to functional groups in matrix molecules and quenching agents) | Viability of cells (alive) (Fibroblasts [1]; Normality ratio 1:5) [%] | Viability of cells (alive) (Fibroblasts [1]; Normality ratio 1:10) [%] | Viability of cells (alive) (Fibroblasts [1]; Normality ratio 1:50) [%] | Viability of cells (Fibroblasts [1]; Normality ratio 5:1 of reactive groups in crosslinking agent to functional groups in matrix molecules and quenching agents) | Viability of cells (alive) (Fibroblasts [1]; crosslinking agent only, 1 mN) [%] | Viability of cells (Fibroblasts [1]; crosslinking agent only, ≥5 mN) | cell proliferation (NIH3T3 fibroblast cells; collagen gel, 1 mN crosslinker) | cells survived (NIH3T3 fibroblast cells; collagen gel, 1 mN crosslinker) | cell viability (NIH3T3 fibroblast cells; collagen gel, 5 mN crosslinker) | relative toxicity among the three crosslinking agents (NIH3T3 fibroblast cells) | cytotoxicity of the adhesive (Fibroblasts [2]) | Viability of cells (alive) (Fibroblasts [1]) [%] | cell viability in gel (Fibroblasts [1]) | fibroblast viability in gel (Fibroblasts [1]) | Viability of cells (alive) (Fibroblasts [1]; 24 h, 0.1 mN) [%] | cells survived (Fibroblasts [1]; 24 h, 0.1 mN) | cells adhered to the gel (NIH3T3 fibroblast cells; collagen gel, 0.1 mN crosslinker) [%] | cell viability (NIH3T3 fibroblast cells; collagen gel, 0.5 mN crosslinker, 24 hours of culturing)
1 | COC(=O)C1=CO[C@@H](O)[C@@H]2C(CO)=CC[C@H]12 [genipin] | some fibroblasts died; also recorded: most fibroblasts survived in the distal area | Some | 100 | 100 | 100 | All die | ≥80 | All die | no cell proliferation | over 80% | all cells died | least toxic | increased with elevated concentration of genipin |  |  |  |  |  |  | 
2 | O=CCCCC=O [glutaraldehyde] |  |  |  |  |  |  |  |  |  |  |  | most toxic |  | 100 | most adjacent cells died | survived and proliferated like the control groups | ~20 | about 20% | 20 | most cells died
